The test system of this test is P388 leukemia ip, CD2F1 mice, survival T/C. Nature of the test: NCI In Vivo Anticancer Drug Screen. Data for tumor model P388 Leukemia (intraperitoneal) in CD2F1 (CDF1) mice. Conditions: endpoint: median survival time, higher = longer survival. In short, it runs like this: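 Mice carrying the transplanted tumor received test compound or vehicle. Survival was recorded in each group, and the value is the treated-group measurement divided by that of the vehicle-treated control group.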

The mark [1] stands for this setting: dose: 50.0 mg/kg/injection, schedule: Q01DX009 (ip), vehicle: Klucel (hydroxypropylcellulose) (HPC).
The mark [2] stands for this setting: dose: 100.0 mg/kg/injection, schedule: Q01DX009 (ip), vehicle: Klucel (hydroxypropylcellulose) (HPC).
[3] abbreviates: dose: 200.0 mg/kg/injection, schedule: Q01DX009 (ip), vehicle: Klucel (hydroxypropylcellulose) (HPC).
Where [4] appears, read: dose: 50.0 mg/kg/injection, schedule: Q01DX009 (ip), vehicle: saline with Tween-80.
The mark [5] stands for this setting: dose: 100.0 mg/kg/injection, schedule: Q01DX009 (ip), vehicle: saline with Tween-80.
[6] abbreviates: dose: 200.0 mg/kg/injection, schedule: Q01DX009 (ip), vehicle: saline with Tween-80.

“And” between values parts separate entries of the source, which are not always exact repeats. Identical values can stand only once. Toxic doses and inconclusive results are not listed.

Take `CCOc1cc2cc(CCO)c(C)cc2cn1`: the T/C by setting is: (dose: 6.25 mg/kg/injection, schedule: Q01DX009 (ip), vehicle: distilled water + Tween-80) 110 % of control; (dose: 12.5 mg/kg/injection, schedule: Q01DX009 (ip), vehicle: distilled water + Tween-80) 108 % of control; (dose: 25.0 mg/kg/injection, schedule: Q01DX009 (ip), vehicle: distilled water + Tween-80) 94 % of control; (dose: 50.0 mg/kg/injection, schedule: Q01DX009 (ip), vehicle: distilled water + Tween-80) 94 % of control; (dose: 100.0 mg/kg/injection, schedule: Q01DX009 (ip), vehicle: distilled water + Tween-80) 100 % of control and 90 % of control; (dose: 200.0 mg/kg/injection, schedule: Q01DX009 (ip), vehicle: distilled water + Tween-80) 95 % of control. Moreover, the T/C (dose: 400.0 mg/kg/injection, schedule: Q01DX009 (ip), vehicle: distilled water + Tween-80) is 104 % of control.
Consider `O=C1CCSC(=S)N1c1cc(Cl)c(Cl)cc1Cl`, for which the T/C (dose: 50.0 mg/kg/injection, schedule: Q01DX009 (ip), vehicle: suspension in saline) is 106 % of control; the T/C (dose: 100.0 mg/kg/injection, schedule: Q01DX009 (ip), vehicle: suspension in saline) was 108 % of control; the T/C (dose: 200.0 mg/kg/injection, schedule: Q01DX009 (ip), vehicle: suspension in saline) was 109 % of control.
Regarding `O=c1c2cc(Br)ccc2nc2n1N=C(c1ccccc1)C(c1ccccc1)=NN2`, the T/C was 88 % of control (dose: 50.0 mg/kg/injection, schedule: Q04DX002 (ip), vehicle: Klucel (hydroxypropylcellulose) (HPC)); 91 % of control (dose: 100.0 mg/kg/injection, schedule: Q04DX002 (ip), vehicle: Klucel (hydroxypropylcellulose) (HPC)); 87 % of control (dose: 200.0 mg/kg/injection, schedule: Q04DX002 (ip), vehicle: Klucel (hydroxypropylcellulose) (HPC)).
`O=c1ssc(=Nc2ccccc2)n1-c1ccccc1`: the T/C runs as follows: under setting [1], 109 % of control; under setting [2], 116 % of control and 118 % of control; under setting [3], 113 % of control and 117 % of control; (dose: 400.0 mg/kg/injection, schedule: Q01DX009 (ip), vehicle: Klucel (hydroxypropylcellulose) (HPC)) 124 % of control.
Regarding `COc1ccc(Cc2nnc(C)c3c(C)[nH]nc23)cc1`, the T/C runs as follows: under setting [1], 91 % of control; under setting [2], 91 % of control; under setting [3], 86 % of control.
For the compound `CCCN1C(=O)Cc2ccccc21`, the T/C is, setting by setting: (dose: 100.0 mg/kg/injection, schedule: Q01DX001 (ip), vehicle: Klucel (hydroxypropylcellulose) (HPC)) 95 % of control; (dose: 200.0 mg/kg/injection, schedule: Q01DX001 (ip), vehicle: Klucel (hydroxypropylcellulose) (HPC)) 97 % of control; (dose: 400.0 mg/kg/injection, schedule: Q01DX001 (ip), vehicle: Klucel (hydroxypropylcellulose) (HPC)) 100 % of control.
As to `CCOCCOCCOC(C)Oc1cccc(C(=O)OCC)c1` (stereo unspecified), the T/C is 92 % of control (dose: 60.0 mg/kg/injection, schedule: Q01DX005 (ip), vehicle: saline with Tween-80); 100 % of control (dose: 120.0 mg/kg/injection, schedule: Q01DX005 (ip), vehicle: saline with Tween-80); 92 % of control (dose: 240.0 mg/kg/injection, schedule: Q01DX005 (ip), vehicle: saline with Tween-80).
For the compound `CCOC(=O)c1ccc(Nc2sc(C(=O)c3ccc(Br)cc3)c(N)c2C#N)cc1`, the T/C was 100 % of control under setting [4]; 108 % of control under setting [5]; 90 % of control under setting [6]; 86 % of control (dose: 400.0 mg/kg/injection, schedule: Q01DX009 (ip), vehicle: saline with Tween-80).
Take `C[n+]1ccc2ccccc2c1-c1c2ccccc2cc[n+]1C`: the T/C (dose: 12.5 mg/kg/injection, schedule: Q01DX001 (ip), vehicle: saline) is 115 % of control; the T/C (dose: 25.0 mg/kg/injection, schedule: Q01DX001 (ip), vehicle: saline) is 101 % of control; the T/C (dose: 50.0 mg/kg/injection, schedule: Q01DX001 (ip), vehicle: saline) was 99 % of control.
`NC(=O)NC1CCCCCCC1`: the T/C by setting is: (dose: 100.0 mg/kg/injection, schedule: Q04DX003 (ip), vehicle: saline with Tween-80) 100 % of control; (dose: 200.0 mg/kg/injection, schedule: Q04DX003 (ip), vehicle: saline with Tween-80) 109 % of control; (dose: 400.0 mg/kg/injection, schedule: Q04DX003 (ip), vehicle: saline with Tween-80) 95 % of control.
Regarding `COc1c(O)c2c(c3cc(C(=O)N4CCc5c4c(O)c(OC)c4[nH]c(C(=O)N6CC7CC78C6=CC(=O)c6[nH]cc(C)c68)cc54)[nH]c13)CCN2C(N)=O` (stereo unspecified), the T/C was 190 % of control (dose: 0.01 mg/kg/injection, schedule: Q04DX003 (ip), vehicle: other); 190 % of control and 211 % of control (dose: 0.03 mg/kg/injection, schedule: Q04DX003 (ip), vehicle: other); 150 % of control (dose: 0.04 mg/kg/injection, schedule: Q04DX003 (ip), vehicle: DMSO); 166 % of control (dose: 0.1 mg/kg/injection, schedule: Q04DX003 (ip), vehicle: DMSO); 118 % of control and 98 % of control (dose: 0.1 mg/kg/injection, schedule: Q04DX003 (ip), vehicle: other); 120 % of control (dose: 2.6 micrograms/kg/injection, schedule: Q01DX009 (ip), vehicle: other). For the same compound, the T/C was 119 % of control (dose: 4.0 micrograms/kg/injection, schedule: Q01DX009 (ip), vehicle: other); 163 % of control (dose: 10.0 micrograms/kg/injection, schedule: Q04DX003 (ip), vehicle: other); 94 % of control (dose: 13.0 micrograms/kg/injection, schedule: Q01DX009 (ip), vehicle: DMSO); 124 % of control (dose: 13.0 micrograms/kg/injection, schedule: Q04DX003 (ip), vehicle: other); 120 % of control (dose: 20.0 micrograms/kg/injection, schedule: Q04DX003 (ip), vehicle: other); 95 % of control (dose: 21.6 micrograms/kg/injection, schedule: Q01DX009 (ip), vehicle: DMSO). Moreover, the T/C runs as follows: (dose: 30.0 micrograms/kg/injection, schedule: Q04DX003 (ip), vehicle: other) 181 % of control; (dose: 36.0 micrograms/kg/injection, schedule: Q01DX009 (ip), vehicle: DMSO) 98 % of control; (dose: 60.0 micrograms/kg/injection, schedule: Q01DX009 (ip), vehicle: DMSO) 93 % of control; (dose: 64.8 micrograms/kg/injection, schedule: Q04DX003 (ip), vehicle: DMSO) 153 % of control; (dose: 64.8 micrograms/kg/injection, schedule: Q04DX003 (ip), vehicle: saline) 156 % of control; (dose: 88.5 micrograms/kg/injection, schedule: Q01DX001 (ip), vehicle: other) 153 % of control. Also, the T/C (dose: 100.0 micrograms/kg/injection, schedule: Q01DX009 (ip), vehicle: DMSO) is 95 % of control; the T/C (dose: 100.0 micrograms/kg/injection, schedule: Q04DX003 (ip), vehicle: other) was 93 % of control; the T/C (dose: 108.0 micrograms/kg/injection, schedule: Q04DX003 (ip), vehicle: DMSO) is 161 % of control; the T/C (dose: 133.0 micrograms/kg/injection, schedule: Q01DX001 (ip), vehicle: other) was 155 % of control; the T/C (dose: 180.0 micrograms/kg/injection, schedule: Q04DX003 (ip), vehicle: DMSO) was 170 % of control; the T/C (dose: 200.0 micrograms/kg/injection, schedule: Q01DX001 (ip), vehicle: other) is 162 % of control. For the same compound, the T/C runs as follows: (dose: 300.0 micrograms/kg/injection, schedule: Q04DX003 (ip), vehicle: saline) 105 % of control; (dose: 450.0 micrograms/kg/injection, schedule: Q01DX001 (ip), vehicle: other) 157 % of control.
With `O=S1(c2ccccc2)=NC(=S)Nc2ccccc21` (stereo unspecified), the T/C reads like this: under setting [4], 111 % of control; under setting [5], 102 % of control; under setting [6], 98 % of control.
Regarding `Cc1ccc(-c2cc(N)n(-c3nnc(-c4ccccc4)c(-c4ccccc4)n3)n2)cc1`, the T/C runs as follows: (dose: 50.0 mg/kg/injection, schedule: Q01DX005 (ip), vehicle: saline with Tween-80) 105 % of control; (dose: 100.0 mg/kg/injection, schedule: Q01DX005 (ip), vehicle: saline with Tween-80) 105 % of control; (dose: 200.0 mg/kg/injection, schedule: Q01DX005 (ip), vehicle: saline with Tween-80) 93 % of control.
For `CN1C(=O)C(=O)N(Cc2ccco2)C1=O`, the T/C runs as follows: under setting [1], 97 % of control; under setting [2], 100 % of control; under setting [3], 101 % of control.

(Values after PubChem BioAssay AID330 (DTP/NCI, 2004).)
